{"source": "patent EP0812857A1", "about": "“Irreversible HIV protease inhibitors, compositions containing same and process for the preparation thereof” (LG Chemical Limited, priority 1996, dated 1997)", "key": {"in vitro": {"assay": "in vitro", "settings": "human, h9 or sup t1 cells", "method": "To determine the cytotoxicity of the compounds of the present invention, 0.1µM to 100µM of the novel compounds were added to H9 cell or Sup T1 cell and the mixture was cultured on a rpmi-1640 medium at 37°C. The medium was refreshed every 3 days and the extent of cell proliferation was observed using Hemacytometer according to the trypan blue dye exclusion technique which is well known in the art. CT50(i.e., concentration that causes death of cells by 50%) was determined. As control compounds, azidothymidine(AZT, Burrows-Wellcome Co.) and Ro-31 8959(Hoffmann-La Roche AG) were used. […]"}, "HIV-1": {"test_system": "HIV-1", "assay": "Anti-viral activity: syncytium formation (Sup T1) or reverse transcriptase assay (H9)", "format": "cell-based", "settings": "Human immunodeficiency virus 1; concentration that inhibits the proliferation of HIV by 50%; H9 and Sup T1 cell lines, 200 TCID50 HIV-1; cell line not given; read-out: IC", "method": "The anti-viral activity of the compounds of the present invention was determined by measuring the concentration of the compounds that inhibits the proliferation of HIV by 50%(IC50) through a survey for syncytium formation or reverse transcriptase assay.\n1 x 10^5 cells of each of H9(ATCC HTB 176) and Sup T1 cell lines were added to the wells of a 24-well microtiter plate and various concentrations of the compounds of the present invention were added thereto. 200 TCID50(200-fold of 50% tissue culture infection dose) of HIV-1 inoculum and rpmi-1640 medium(Sigma Chemical Co., U.S.A) were added successively to the wells and the plate was incubated at 37°C. In case of Sup T1, the number of syncytium formed was investigated after 3 to 9 days. IC50 of each compound was determined by measuring the concentration of inhibitor that can reduce the number of syncytium by 50% compared with those formed in the same condition without the inhibitor.\nIn case of H9, three-quarters(3/4) of the culture medium in volume was refreshed every 3 days; and after 9 days, 6ml of the culture fluid was taken and 2.5ml of 30% polyethyleneglycol(PEG, M.W. 6000-8000) and 0.4M NaCl were added thereto. The resulting solution was allowed to stand at 0°C overnight to precipitate virus particles. The solution was centrifuged at 2000rpm for 45 minutes, the supernatant was discarded therefrom and the precipitate was diluted with 20µl of a reverse transcriptase suspension buffer(50mM tris-HCl, pH 7.5, 1mM dithiothreitol, 20% glycerol, 0.25M KCl and 0.25% Triton X-100). The resulting suspension was stored in an Effendorf tube at -70°C until used. A procedure of freezing said virus suspension for 2 minutes in dry ice and thawing same at 37°C for 2 minutes was repeated three times and the resulting suspension was centrifuged at 4°C. The resulting supernatant was used in carrying out the reverse transcriptase assay.\n10µl of the said viral suspension was added to a solution of: 10µl of buffer solution(250mM tris-HCl, pH 7.5, 37.5mM MgCl2, 0.25% triton X-100), 1.2µl of 200mM dithiothreitol, 5µl of 100µM oligo(dT)-poly(A)(Boeringer Manheim, 12-18 oligomer), 1µl(1µCi) of ^3H-TTP(Thymidinetri-phosphate) and 23.6µl of water; and the resulting mixture was placed at 37°C. After 1 hour, the mixture was poured onto a WHATMAN DEB1 filter and the filter was washed three times with 5ml of 2 x SSC buffer solution(17.53g of sodium chloride, 8.82g of sodium citrate, pH 7.0, 1 liter of water) for about 10 minutes each time and twice with 95% methanol for 10 seconds. The filter was put onto aluminium foil and dried with an infrared lamp. The amount of radioactivity was counted using a liquid scintillation counter."}, "HIV-1 protease": {"target": "T1, HIV-1 protease (Human immunodeficiency virus type 1 group M subtype B, UniProt P04585)", "T1 construct": "addition of 2.6nM of HIV-1 protease", "assay": "Assay for inhibitory effect on HIV protease (irreversible inhibition kinetics, HPLC readout)", "format": "biochemical", "settings": "second order rate constant; 2.6nM HIV-1 protease, pH 5.5; KINSIM/FITSIM fit; exact values hard to calculate above 10^9", "method": "The inhibitory effect on HIV protease of the compounds of the present invention was determined by the following method.\nTo a buffer solution comprising 50mM sodium acetate, pH 5.5, 1mM dithiothreitol (DTT), 1mM ethylenediaminetetra-acetate (EDTA), 0.75M ammonium sulfate, 0.2M sodium chloride and 0.1% NP40(NONIGET P-40; Sigma Chemical Co., U.S.A.), were added various concentrations of a compound selected from the compound obtained in Examples 1 to 9 to prepare a preincubation solution. Inhibition reaction was started with the addition of 2.6nM of HIV-1 protease to the preincubation solution. Each 10µl of the reaction solution was taken at a given time interval and added to 80µl of assay solution containing 100µM of reaction substrate in the same buffer solution as the above to assay for the residual enzyme activity. In this context, an oligopeptide(KM=20µM) consisting of 11 amino acids, i.e., Ser-Ile-Ala-Glu-(p-NO2)-Phe-Leu-Val-Arg-Ala-Lys-His, was used as a reaction substrate, which oligopeptide was to be cleaved in two by the breakage of amide bond between (P-NO2)-Phe and Leu upon the attack of HIV protease. The reaction rate was determined by subjecting the substrate before the reaction and the product after the reaction to HPLC separation and then measuring the relative amount of the product, using the strong absorbance of (p-NO2)-Phe at 280nm. The amounts of reduction in enzyme activity according to the elasped time were measured and the natural logarithmic values(ln) of the measured amounts were plotted against time to obtain a linear graph and kobs was calculated from the slope of the linear graph.\nThe inhibition constant was calculated according to the following equation: (1)/(kobs)=(1)/(kina)+(KI)/(kina)(1)/([I]) [formula] wherein: kobs is a rate constant indicating the rate of reduction in enzyme activity according to the elapsed time under the presence of a given concentration of inhibitor, kina is a rate constant indicating the rate of chemical reaction forming covalent bond between an enzyme and an inhibitor in Michaelis-Menten complex, KI is an inhibition constant indicating the dissociation rate of Michaelis-Menten complex into an enzyme and an inhibitor, and [I] means the inhibitor concentration.\nThe above equation is applicable to an experiment carried out under the condition in which the concentration of inhibitor is fear higher than that of enzyme (Steady State Kinetic). […] The inhibition constants KI and kina and second order rate constant kina/KI were obtained by inputting the value of [E]/([E]+[EI]+[EI']) [formula] into KINSIM/FITSIM program."}}}
{"molecule": "Cc1cn([C@H]2C[C@H](N=[N+]=[N-])[C@@H](CO)O2)c(=O)[nH]c1=O", "note": "[AZT, azidothymidine, reference compound]", "values": [{"measurement": "CC50", "setting": "in vitro", "value": "> 10000", "unit": "nM"}, {"measurement": "IC50", "setting": "HIV-1", "value": 12, "unit": "nM"}]}
{"molecule": "CC(C)(C)NS(=O)(=O)CC[C@@H]1O[C@@H]1[C@H](Cc1ccccc1)NC(=O)[C@@H](NC(=O)OCc1ccccc1)C(C)(C)S(C)(=O)=O", "note": "[Ex. 1, N-t-butyl-5S-[N-benzyloxycarbonyl-β-methanesulfonyl-L-valinyl]amino-(4R,3S)-epoxy-6-phenylhexanesulfonamide]", "values": [{"measurement": "kinact/KI", "setting": "HIV-1 protease", "value": "1.67e+07 to 1.67e+08", "unit": "M⁻¹ s⁻¹"}, {"measurement": "CC50", "setting": "in vitro", "value": "> 10000", "unit": "nM"}, {"measurement": "IC50", "setting": "HIV-1", "value": 25, "unit": "nM"}]}
{"molecule": "CC(C)(C)NS(=O)(=O)CC[C@@H]1O[C@@H]1[C@H](Cc1ccccc1)NC(=O)[C@@H](NC(=O)c1ccc2ccccc2n1)C(C)(C)S(C)(=O)=O", "note": "[Ex. 2, N-t-butyl-5S-[N-(2-quinolinecarbonyl)-β-methanesulfonyl-L-valinyl]amino-(4R,3S)-epoxy-6-phenylhexanesulfonamide]", "values": [{"measurement": "kinact/KI", "setting": "HIV-1 protease", "value": "1.67e+07 to 1.67e+08", "unit": "M⁻¹ s⁻¹"}, {"measurement": "CC50", "setting": "in vitro", "value": "> 10000", "unit": "nM"}, {"measurement": "IC50", "setting": "HIV-1", "value": 30, "unit": "nM"}]}
{"molecule": "CC(C)(C)NS(=O)(=O)CC[C@@H]1O[C@@H]1[C@H](Cc1ccccc1)NC(=O)[C@H](CC(N)=O)NC(=O)c1ccc2ccccc2n1", "note": "[Ex. 3]", "values": [{"measurement": "kinact/KI", "setting": "HIV-1 protease", "value": "1.67e+07 to 1.67e+08", "unit": "M⁻¹ s⁻¹"}, {"measurement": "CC50", "setting": "in vitro", "value": "> 10000", "unit": "nM"}, {"measurement": "IC50", "setting": "HIV-1", "value": 10, "unit": "nM"}]}
{"molecule": "CN(C(C)(C)C)S(=O)(=O)CC[C@@H]1O[C@@H]1[C@H](Cc1ccccc1)NC(=O)[C@@H](NC(=O)OCc1ccccc1)C(C)(C)S(C)(=O)=O", "note": "[Ex. 4, N-t-butyl-N-methyl-5S-[N-benzyloxycarbonyl-β-methanesulfonyl-L-valinyl]amino-(4R,3S)-epoxy-6-phenylhexanesulfonamide]", "values": [{"measurement": "kinact/KI", "setting": "HIV-1 protease", "value": "1.67e+07 to 1.67e+08", "unit": "M⁻¹ s⁻¹"}, {"measurement": "CC50", "setting": "in vitro", "value": "> 10000", "unit": "nM"}, {"measurement": "IC50", "setting": "HIV-1", "value": 1, "unit": "nM"}]}
{"molecule": "CN(C(C)(C)C)S(=O)(=O)CC[C@@H]1O[C@@H]1[C@H](Cc1ccccc1)NC(=O)[C@@H](NC(=O)COc1cccc2cnccc12)C(C)(C)S(C)(=O)=O", "note": "[Ex. 5, N-t-butyl-N-methyl-5S-(N-(5-isoquinolyloxymethylcarbonyl)-β-methanesulfonyl-L-valinyl]amino-(4R,3S)-epoxy-6-phenylhexanesulfonamide]", "values": [{"measurement": "kinact/KI", "setting": "HIV-1 protease", "value": "1.67e+07 to 1.67e+08", "unit": "M⁻¹ s⁻¹"}, {"measurement": "CC50", "setting": "in vitro", "value": "> 10000", "unit": "nM"}, {"measurement": "IC50", "setting": "HIV-1", "value": 5, "unit": "nM"}]}
{"molecule": "CCN(c1ccccc1)S(=O)(=O)CC[C@@H]1O[C@@H]1[C@H](Cc1ccccc1)NC(=O)[C@@H](NC(=O)c1ccc2ccccc2n1)C(C)(C)S(C)(=O)=O", "note": "[Ex. 6, N-ethyl-N-phenyl-5S-[N-(2-quinolinecarbonyl)-β-methanesulfonyl-L-valinyl]amino-(4R,3S)-epoxy-6-phenylhexanesulfonamide]", "values": [{"measurement": "kinact/KI", "setting": "HIV-1 protease", "value": "1.67e+07 to 1.67e+08", "unit": "M⁻¹ s⁻¹"}, {"measurement": "CC50", "setting": "in vitro", "value": "> 10000", "unit": "nM"}, {"measurement": "IC50", "setting": "HIV-1", "value": 5, "unit": "nM"}]}
{"molecule": "CCN(c1ccccc1)S(=O)(=O)CC[C@@H]1O[C@@H]1[C@H](Cc1ccccc1)NC(=O)[C@H](CC(N)=O)NC(=O)c1ccc2ccccc2n1", "note": "[Ex. 7, N-ethyl-N-phenyl-5S-[N-(2-quinolinecarbonyl)-L-asparaginyl]amino-(4R,3S)-epoxy-6-phenylhexanesulfonaimide]", "values": [{"measurement": "kinact/KI", "setting": "HIV-1 protease", "value": "1.67e+07 to 1.67e+08", "unit": "M⁻¹ s⁻¹"}, {"measurement": "CC50", "setting": "in vitro", "value": "> 10000", "unit": "nM"}, {"measurement": "IC50", "setting": "HIV-1", "value": 20, "unit": "nM"}]}
{"molecule": "CCN(C(C)C)S(=O)(=O)CC[C@@H]1O[C@@H]1[C@H](Cc1ccccc1)NC(=O)[C@@H](NC(=O)c1ccc2ccccc2n1)C(C)(C)S(C)(=O)=O", "note": "[Ex. 8, N-ethyl-N-isopropyl-5S-[N-(2-quinolinecarbonyl)-β-methanesulfonyl-L-valinyl]amino-(4R,3S)-epoxy-6-phenylhexanesulfonamide]", "values": [{"measurement": "kinact/KI", "setting": "HIV-1 protease", "value": "1.67e+07 to 1.67e+08", "unit": "M⁻¹ s⁻¹"}, {"measurement": "CC50", "setting": "in vitro", "value": "> 10000", "unit": "nM"}, {"measurement": "IC50", "setting": "HIV-1", "value": 10, "unit": "nM"}]}
{"molecule": "CC(C)C(NS(=O)(=O)CC[C@@H]1O[C@@H]1[C@H](Cc1ccccc1)NC(=O)[C@@H](NC(=O)OCc1ccccc1)C(C)(C)S(C)(=O)=O)C(C)C", "note": "[Ex. 9, N-(2,4-dimethyl-3-pentyl)-5S-[N-(2-benzyloxycarbonyl)-β-methanesulfonyl-L-valinyl]amino-(4R,3S)-epoxy-6-phenylhexanesulfonamide]", "values": [{"measurement": "kinact/KI", "setting": "HIV-1 protease", "value": "1.67e+07 to 1.67e+08", "unit": "M⁻¹ s⁻¹"}, {"measurement": "CC50", "setting": "in vitro", "value": "> 10000", "unit": "nM"}, {"measurement": "IC50", "setting": "HIV-1", "value": 10, "unit": "nM"}]}
